In US11339130B1 (Blade Therapeutics, Inc., priority 2016, dated 2022):
Like-named read-outs stand apart in the source and are kept apart here.

How the values were obtained:
Human Calpain 1/NS1 = molecular target: T1, Human Calpain 1/NS1 (Homo sapiens, UniProt P07384); assay: Calpain inhibition continuous fluorescence (FRET) assay, Human Calpain 1/NS1; assay type: biochemical; details: read-out: Human Calpain 1/NS1 IC50
T1 sequence (P07384 1-714): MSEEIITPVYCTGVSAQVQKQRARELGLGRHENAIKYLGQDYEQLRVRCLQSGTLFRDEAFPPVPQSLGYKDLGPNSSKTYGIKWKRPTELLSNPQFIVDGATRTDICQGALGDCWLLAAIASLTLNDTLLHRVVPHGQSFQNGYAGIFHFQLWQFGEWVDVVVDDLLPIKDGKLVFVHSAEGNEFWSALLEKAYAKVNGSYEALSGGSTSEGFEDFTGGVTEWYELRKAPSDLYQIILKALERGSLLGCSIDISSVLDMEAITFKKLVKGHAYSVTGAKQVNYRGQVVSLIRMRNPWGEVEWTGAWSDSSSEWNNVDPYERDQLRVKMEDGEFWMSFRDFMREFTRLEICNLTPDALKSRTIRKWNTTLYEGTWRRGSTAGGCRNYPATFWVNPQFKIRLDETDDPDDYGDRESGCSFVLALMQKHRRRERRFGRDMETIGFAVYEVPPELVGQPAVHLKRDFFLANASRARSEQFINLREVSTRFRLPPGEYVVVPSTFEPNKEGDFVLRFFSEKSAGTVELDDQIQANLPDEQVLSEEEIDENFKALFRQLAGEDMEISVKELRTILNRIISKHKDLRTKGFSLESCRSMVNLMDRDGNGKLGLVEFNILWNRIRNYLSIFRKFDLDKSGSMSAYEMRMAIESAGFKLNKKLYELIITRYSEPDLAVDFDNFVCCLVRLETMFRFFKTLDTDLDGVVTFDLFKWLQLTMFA
T1 sequence (P04632 1-268 partner): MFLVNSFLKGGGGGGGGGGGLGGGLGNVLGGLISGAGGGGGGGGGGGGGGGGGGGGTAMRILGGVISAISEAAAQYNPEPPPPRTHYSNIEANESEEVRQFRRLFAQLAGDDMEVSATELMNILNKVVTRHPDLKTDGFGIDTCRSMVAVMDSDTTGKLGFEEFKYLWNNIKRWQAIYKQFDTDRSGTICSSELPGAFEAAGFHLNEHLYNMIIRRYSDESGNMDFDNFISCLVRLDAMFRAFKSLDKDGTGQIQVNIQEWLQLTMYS
In short: (§1)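 Continuous FRET read (ex 490/em 520 nm, 10 min) of calpain 1, 2 or 9 cleaving an internally quenched 5-FAM peptide, triggered by substrate with CaCl2 after enzyme–inhibitor incubation at ambient 25 °C, pH 7.5 Tris/NaCl/DTT buffer. IC50 from initial rates (1-5 min) via 4-parameter fit.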

[1] = system: Calpain activity in SH-SY5Y cells (SBDP-150); assay: SH-SY5Y Spectrin western blot assay (SBDP-150 breakdown product, A23187-induced); assay type: cell-based; details: SH-SY5Y cells, read-out: SH-SY5Y Spectrin IC50
Human Calpain 9/NS1 = molecular target: T2, Human Calpain 9/NS1 (Homo sapiens, UniProt O14815); assay: Calpain inhibition continuous fluorescence (FRET) assay, Human Calpain 9/NS1; assay type: biochemical; details: read-out: Human Calpain 9/NS1 IC50
T2 sequence (O14815 1-690): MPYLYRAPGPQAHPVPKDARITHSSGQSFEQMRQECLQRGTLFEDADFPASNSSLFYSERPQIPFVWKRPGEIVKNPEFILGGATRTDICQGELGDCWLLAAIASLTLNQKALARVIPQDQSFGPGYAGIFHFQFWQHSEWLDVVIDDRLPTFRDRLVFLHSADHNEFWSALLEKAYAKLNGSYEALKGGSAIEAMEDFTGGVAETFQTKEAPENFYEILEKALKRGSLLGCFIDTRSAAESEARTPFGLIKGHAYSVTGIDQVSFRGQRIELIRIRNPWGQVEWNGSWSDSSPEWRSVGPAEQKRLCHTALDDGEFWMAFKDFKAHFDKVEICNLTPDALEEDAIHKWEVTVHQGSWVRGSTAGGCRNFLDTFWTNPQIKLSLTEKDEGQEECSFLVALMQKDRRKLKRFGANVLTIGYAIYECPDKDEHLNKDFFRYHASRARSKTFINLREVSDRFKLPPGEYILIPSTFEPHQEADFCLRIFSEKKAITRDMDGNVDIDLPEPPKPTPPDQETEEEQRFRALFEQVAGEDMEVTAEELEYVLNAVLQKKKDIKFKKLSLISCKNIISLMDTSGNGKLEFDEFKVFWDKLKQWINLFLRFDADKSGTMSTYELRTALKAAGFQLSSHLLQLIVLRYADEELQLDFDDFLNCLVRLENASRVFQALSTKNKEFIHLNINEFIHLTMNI
T2 sequence (P04632 1-268 partner): T1 sequence (P04632 1-268 partner)
In short: as §1

Human Calpain 2/NS1 = molecular target: T3, Human Calpain 2/NS1 (Homo sapiens, UniProt P17655); assay: Calpain inhibition continuous fluorescence (FRET) assay, Human Calpain 2/NS1; assay type: biochemical; details: read-out: Human Calpain 2/NS1 IC50
T3 sequence (P17655 1-700): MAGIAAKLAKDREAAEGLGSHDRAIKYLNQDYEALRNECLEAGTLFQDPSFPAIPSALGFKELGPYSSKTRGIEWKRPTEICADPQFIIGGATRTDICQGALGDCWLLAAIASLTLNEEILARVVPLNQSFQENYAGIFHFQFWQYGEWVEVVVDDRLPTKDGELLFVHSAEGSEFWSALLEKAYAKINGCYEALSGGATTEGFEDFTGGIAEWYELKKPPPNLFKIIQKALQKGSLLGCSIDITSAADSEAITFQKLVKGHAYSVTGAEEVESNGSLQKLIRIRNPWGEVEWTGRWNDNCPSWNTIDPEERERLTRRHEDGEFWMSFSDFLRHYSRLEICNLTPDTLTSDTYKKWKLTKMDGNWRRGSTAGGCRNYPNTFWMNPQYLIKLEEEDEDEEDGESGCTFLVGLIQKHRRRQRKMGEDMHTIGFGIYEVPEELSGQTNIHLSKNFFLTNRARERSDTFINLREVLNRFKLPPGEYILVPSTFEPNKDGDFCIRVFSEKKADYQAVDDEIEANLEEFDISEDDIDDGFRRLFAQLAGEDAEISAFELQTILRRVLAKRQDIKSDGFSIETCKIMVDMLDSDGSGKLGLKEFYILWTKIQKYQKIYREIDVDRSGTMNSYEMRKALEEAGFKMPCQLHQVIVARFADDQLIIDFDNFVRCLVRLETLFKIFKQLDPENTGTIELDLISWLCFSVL
T3 sequence (P04632 1-268 partner): T1 sequence (P04632 1-268 partner)
In short: as §1

[2] = system: Calpain activity in SH-SY5Y cells; assay: SH-SY5Y + AMC fluorescence assay (Suc-LLVY-AMC substrate); assay type: cell-based; details: read-out: SH-SY5Y + AMC IC50
[3] = Homo sapiens, Column D, A23187-induced SBDP-150
[4] = Homo sapiens, A23187-induced SBDP-150, western blot

Compound	IC50 (Human Calpain 1/NS1; Column A) [µM]	IC50 [1, 3] [µM]	IC50 (Human Calpain 9/NS1; Column C) [µM]	IC50 (Human Calpain 2/NS1; Column B) [µM]	IC50 (Human Calpain 1/NS1) [µM]	IC50 ([1]; A23187-induced SBDP-150, western blot) [µM]	IC50 (Human Calpain 9/NS1) [µM]	IC50 (Human Calpain 2/NS1) [µM]	IC50 [1, 4] [µM]	IC50 [2] [µM]
Cc1cc(C(=O)N[C@@H](Cc2ccccc2)C(=O)C(N)=O)n(-c2cccc(CNC(=O)c3ccccc3)c2)n1 [Compound 141, (S)—N-(4-amino-3,4-dioxo-1-phenylbutan-2-yl)-1-(3-(benzamidomethyl)phenyl)-3-methyl-1H-pyrazole-5-carboxamide]	< 3	10 to 25	< 3	< 3						
Cc1cc(C(=O)N[C@@H](Cc2ccccc2)C(=O)C(N)=O)n(-c2ccc(CNC(=O)CCc3ccccc3)cc2)n1 [Compound 155, (S)—N-(4-amino-3,4-dioxo-1-phenylbutan-2-yl)-3-methyl-1-(4-((3-phenylpropanamido)methyl)phenyl)-1H-pyrazole-5-carboxamide]	< 3	> 25	< 3	< 3						
(S)—N-(4-(((1H-benzo[d]imidazol-5-yl)methyl)amino)-3,4-dioxo-1-phenyl butan-2-yl)-3-methyl-5-phenylisoxazole-4-carboxamide [Compound 493]					< 3	> 25	3 to 10	< 3		
Cn1cc(C(=O)NC(Cc2ccccc2)C(=O)C(N)=O)c(Cc2ccccc2)n1 (stereo not drawn) [Compound 483, N-(4-amino-3,4-dioxo-1-phenylbutan-2-yl)-3-benzyl-1-methyl-1H-pyrazole-4-carboxamide]					> 10		< 3	3 to 10	> 25	
Cc1nc(-c2cccc3c2OCO3)c(C(=O)NC(Cc2ccccc2)C(=O)C(N)=O)o1 (stereo not drawn) [Compound 609, N-(4-amino-3,4-dioxo-1-phenylbutan-2-yl)-4-(benzo[d][1,3]dioxol-4-yl)-2-methyloxazole-5-c arboxamide]					< 3		< 3	< 3	< 10	
Cc1cc(C(=O)N[C@@H](Cc2ccccc2)C(=O)C(N)=O)n(-c2cccc(CNC(=O)OCc3ccccc3)c2)n1 [Compound 343, Benzyl (S)-(3-(5-((4-amino-3,4-dioxo-1-phenylbutan-2-yl)carbamoyl)-3-methyl-1H-pyrazol-1-yl)benzyl)carbamate]					< 3		< 3	< 3	10 to 25	
O=C(NC1CC1)C(=O)C(Cc1ccccc1)NC(=O)c1nsnc1-c1ccccc1 (stereo not drawn) [Compound 462, N-(4-(cyclopropylamino)-3,4-dioxo-1-phenylbutan-2-yl)-4-phenyl-1,2,5-thiadiazole-3-carboxamide]					< 3		< 3	< 3	10 to 25	
NC(=O)C(=O)C(Cc1ccccc1)NC(=O)c1cn(-c2cccc(F)c2)nc1-c1ccccc1 (stereo not drawn) [Compound 528, N-(4-amino-3,4-dioxo-1-phenylbutan-2-yl)-1-(3-fluorophenyl)-3-phenyl-1H-pyrazole-4-carb oxamide]					< 3		< 3	< 3	> 25	
NC(=O)C(=O)C(Cc1ccccc1)NC(=O)c1cn(C(F)F)nc1-c1cc2ccccc2cn1 (stereo not drawn) [Compound 608, N-(4-amino-3,4-dioxo-1-phenylbutan-2-yl)-1-(difluoromethyl)-3-(isoquinolin-3-yl)-1H-pyrazole-4-carboxamide]					< 3		< 3	< 3	> 25	
Cc1cccc2sc(-n3nc(C(=O)N[C@@H](Cc4ccccc4)C(=O)C(N)=O)cc3C)nc12 [Compound 299, (S)—N-(4-amino-3,4-dioxo-1-phenylbutan-2-yl)-5-methyl-1-(4-methylbenzo[d]thiazol-2-yl)-1H-pyrazole-3-carboxamide]	< 3	10 to 25	< 3	< 3						
O=C[C@H](Cc1ccccc1)NC(=O)c1ccnn1-c1ccccc1 [Compound 2, (S)—N-(1-oxo-3-phenylpropan-2-yl)-1-phenyl-1H-pyrazole-5-carboxamide]	< 3	10 to 25	< 3	< 3						
C#CCOCc1ccc(-c2nn(C)cc2C(=O)N[C@@H](Cc2ccccc2)C(=O)CF)c(F)c1 [Compound 521, (S)—N-(4-fluoro-3-oxo-1-phenylbutan-2-yl)-3-(2-fluoro-4-((prop-2-yn-1-yloxy)methyl)phenyl)-1-methyl-1H-pyrazole-4-carboxamide]					< 3		3 to 10	< 3	10 to 25	
Cn1cc(C(=O)NC(Cc2ccccc2)C(=O)C(N)=O)c(-c2cccc(C(F)(F)F)c2F)n1 (stereo not drawn) [Compound 516, N-(4-amino-3,4-dioxo-1-phenylbutan-2-yl)-3-(2-fluoro-3-(trifluoromethyl)phenyl)-1-methyl-1H-pyrazole-4-carboxamide]					< 3		< 3	< 3	> 25	
NC(=O)C(=O)C(Cc1ccccc1)NC(=O)c1cn(C(F)F)nc1-c1cnc2ccccc2c1 (stereo not drawn) [Compound 610, N-(4-amino-3,4-dioxo-1-phenylbutan-2-yl)-1-(difluoromethyl)-3-(quinolin-3-yl)-1H-pyrazole-4-carboxamide]					< 3		< 3	< 3	< 10	
NC(=O)C(=O)[C@H](Cc1ccccc1)NC(=O)c1cc(C2CC2)nn1-c1ccccc1 [Compound 306, (S)—N-(4-amino-3,4-dioxo-1-phenylbutan-2-yl)-3-cyclopropyl-1-phenyl-1H-pyrazole-5-carboxamide]					3 to 10		3 to 10	3 to 10		< 10
